From patent publication US6867305B2, “Synthesis of epothilones, intermediates thereto and analogues thereof” (Sloan-Kettering Institute for Cancer Research, priority 1996, dated 2005)
Several values for one entry are separate records, joined by “and”; a condition that tells them apart may be missing. Equal entries are not always repeated. Where two headings read alike, the source gives them in different places. Starred links: 1 amine or outer side, 2 acyl side, 3 side chain; linkers in the order of their positions; H or OH if unused. Positions of bridges follow the written chain, without caps; N, C: chain ends. Non-standard residues stand in square brackets, D forms with d. Residues, ends and D or L forms follow the SMILES beside them. Chains are numbered I, II in the order given. Actinocin(9to1) = Cc1c2oc3c(C)ccc(C(=O)[*:1])c3nc-2c(C(=O)[*:2])c(N)c1=O; NMeV = CN[C@H](C(=O)O)C(C)C; Sar = CNCC(=O)O

Tests used:
[1] = system: HCT-116 colon carcinoma xenograft; test: Human tumor xenograft in nude mice; assay type: in vivo; conditions: HCT-116, i.v. infusion
Description: Therapeutic efficacy of cancer chemotherapeutic agents varies with various factors including the tumor models used and the dosage of drug and schedules and routes of administration. […] In the present studies, we intended to compare the therapeutic effects of drugs near their maximal tolerated doses by measuring the extent of body-weight decreases and/or lethality.
Depending on the tumor type, treatment started on day 10 to day 21 when subcutaneous tumor size reached 35-200 mm^3, except otherwise indicated. Tumor size and body-weight were recorded every other day (Q2D) and, for humane reasons, the animals were sacrificed when tumor size reached ≧10% of body-weight. Each group, including untreated control, consisted of 3-5 animals unless otherwise indicated.
Athymic nude mice bearing the nu/nu gene were used for all human tumor xenografts. Outbred, Swiss-background mice were obtained from Charles River Laboratories. Male mice 8 weeks or older weighing 22 g and up were used for most experiments. The drug was administered via the tail vein for 6 hr.-i.v. infusion. Each individual mouse was confined in a perforated Falcon polypropylene tube restrainer for drug administration. Tumor volume was assessed by measuring length×width×height (or width) using a caliper. The programmable Harvard PHD2000 syringe pump (Harvard Apparatus) with multi-track was used for i.v. infusion. […] All animal studies were conducted in accordance with the guidelines of the National Institutes of Health “Guide for the Care and Use of Animals” and the protocol approved by the Memorial Sloan-Kettering Cancer Center's Institutional Animal Care and Use Committee. In keeping with the policy of this committee for the humane treatment of tumor-bearing animals, mice were euthanized when tumors reached ≧10% of their total body weight.
Human tumor cells (5×10^6) or tumor tissue (30-50 mg) were implanted s.c. flank in nu/nu mice (Charles River Laboratories, Wilmington, Mass.). When tumor grew to a specified size, treatment was started by every-other day×5 with 6 hr i.v.-infusion, unless otherwise indicated. Tumor volume was measured with calipers in three dimensions (length×width×height or width). Body-weight changes and lethality were monitored every other day.

[2] = system: DC-3F hamster lung fibroblasts; test: Tumor cell growth inhibition in vitro; assay type: cell-based; conditions: read-out: IC50
Method: (§1) The fresh medium containing each drug was replenished every 7-14 days. […] In each case ,the drug-exposed cells were resuspended in fresh media for a minimum of 4 days before the experiments for the cell-growth inhibition was carried out.
(§2) The cells were cultured at an initial density of 2-5×10^4 cells per ml. They were maintained in a 5% CO2-humidified atmosphere at 37° C. in RPMI mediun 1640 (GIBCO/BRL) containing penicillin (100 units/ml), streptomycin (100 μg/ml) (GIBCO/BRL), and 5% heat-inactivated fetal bovine serum. For solid tumor cells growing in a monolayer (such as MCF-7/Adr), cytotoxicitiy of the drug was determined in 96-well microtiter plates by using the sulforhodamine B method as described by Skehan et al (23) for measuring the cellular protein content. For cells that were grown in suspension (such as CCRF-CEM and its sublines), cytotoxicitiy was measured by using the 2,-3-bis(2-methoxy-4-nitro-5-sulfophenyl)-5carboxanilide)-2H terazodium hydroxide (XTT)-microculture tetrazonium method (24) in duplicate in 96-well microtiter plates. For both methods, the absorbance of each well was measured with a microplate reader (EL-340, Bio-Tek, Burlington, Vt.). Each run entailed six or seven concentrations of the tested drugs. Dose-effect relationship data were analyzed with the median-effect plot (25) by using a previously described computer program (26).

[3] = system: CCRF-CEM human T-cell acute lymphoblastic leukemia cells; test: Tumor cell growth inhibition in vitro (XTT, 72 h); assay type: cell-based; conditions: for IC50: 72 h incubation
Method: as §1, §2

CCRF-CEM/VBL = test: Relative potency in vitro, very highly resistant MDR cells; assay type: cell-based, human
Method: as §2

[4] = system: CCRF-CEM/Taxol (paclitaxel-resistant subline); test: Tumor cell growth inhibition in vitro (XTT, 72 h); assay type: cell-based, human
Method: as §1, §2

[5] = system: CCRF-CEM/VBL100 (vinblastine-resistant subline); test: Tumor cell growth inhibition in vitro (XTT, 72 h); assay type: cell-based, human; conditions: for cross-resistance (fold of resistance vs parent cell line): CCRF-CEM/VBL100 vs CCRF-CEM
Method: as §1, §2

[6] = system: K562 human chronic myeloblastic leukemia; test: Tumor cell growth inhibition in vitro; assay type: cell-based; conditions: Homo sapiens, K562, K562
Method: as §2, with “They were maintained in a 5% CO2-humidified atmosphere at 37° C. in RPMI mediun 1640 (GIBCO/BRL) containing penicillin (100 units/ml), streptomycin (100 μg/ml) (GIBCO/BRL), and 5% heat-inactivated fetal bovine serum.” left out

CCc1c2c(nc3ccc(OC(=O)N4CCC(N5CCCCC5)CC4)cc13)-c1cc3c(c(=O)n1C2)COC(=O)[C@]3(O)CC [CPT-11, Irinotecan, reference compound]
Therapeutic Effect Rank Order [1]: Taxol, CPT-11≈dEpoB, dEpoF

Cc1c2oc3c(C)ccc(C(=O)N[C@@H]4C(=O)N[C@H](C(C)C)C(=O)N5CCC[C@H]5C(=O)N(C)CC(=O)N(C)[C@@H](C(C)C)C(=O)O[C@@H]4C)c3nc-2c(C(=O)N[C@@H]2C(=O)N[C@H](C(C)C)C(=O)N3CCC[C@H]3C(=O)N(C)CC(=O)N(C)[C@@H](C(C)C)C(=O)O[C@@H]2C)c(N)c1=O [Actinomycin D, actinomycin D, reference compound] (I: T[dV]P[Sar][NMeV] / II: T[dV]P[Sar][NMeV]; ester I:1-I:C, II:1-II:C; linker I:N-II:N via Actinocin(9to1))
IC50 [2]: 0.25 nM and 0.31 nM

C/C1=C/C[C@@H](/C(C)=C/c2csc(C=O)n2)OC(=O)C[C@H](O)C(C)(C)C(=O)[C@H](C)[C@@H](O)[C@@H](C)CCC1 [21-oxo-dEpoB, 21-oxo-desoxyepothilone B]
potency relative to dEpoB (times less potent) ([3]; CCRF-CEM): about 3.7 ×
IC50 ([3]; CCRF-CEM, read-out: IC50): 27 nM
potency relative to dEpoB (times less potent) (CCRF-CEM/VBL; MDR CCRF-CEM/VBL cells): 5.1 ×
Fold of Resistance (B)/(A) (CCRF-CEM/VBL; [IC50 CCRF-CEM/VBL]/[IC50 CCRF-CEM]): 11.9 x
IC50 (CCRF-CEM/VBL; very highly resistant MDR CCRF-CEM/VBL cells, read-out: CCRF-CEM/VBL IC50): 326 nM

C/C1=C/CC(/C(C)=C/c2csc(C)n2)NC(=O)CC(O)C(C)(C)C(=O)[C@H](C)[C@@H](O)[C@@H](C)CCC1 (stereo partly drawn) [aza-dEpoB, 12,13,15-desoxy-15(S)-aza-epothilone B]
IC50 ([3]; Homo sapiens, CCRF-CEM, 72 h): 27.8 nM
potency relative to aza-EpoB (fold less potent) ([3]; in vitro cell lines): about 10 fold
cross-resistance (fold of resistance vs parent cell line) ([4]; CCRF-CEM/Taxol vs CCRF-CEM): 38.4 x
IC50 ([4]; Homo sapiens, CCRF-CEM, 72 h): 791 nM
cross-resistance (fold of resistance vs parent cell line) [5]: 35.8 x
IC50 ([5]; Homo sapiens, CCRF-CEM, 72 h): 997 nM
IC50 [6]: 2.4 nM

CC1=CCC(C(C)=Cc2csc(C)n2)NC(=O)CC(O)C(C)(C)C(=O)C(C)C(O)C(C)CCC1 [15-epi-aza-dEpoB, 12,13,15-desoxy-15(R)-aza-epothilone B]
IC50 ([3]; CCRF-CEM, read-out: IC50): 119 nM
IC50 ([5]; CCRF-CEM/VBL100, 72 h, read-out: IC50): 551 nM
cross-resistance (fold of resistance vs parent cell line) [5]: 4.6 x
